In patent publication US8399465B2, “Compounds with two fused bicyclic heteroaryl moieties as modulators of leukotriene A4 hydrolase” (Janssen Pharmaceutica NV, priority 2009, dated 2013):
Where two headings read alike, the source gives them in different places.

Experiments:
[1] = system: ex vivo calcium ionophore-stimulated LTB4 production in whole blood; assay: Murine arachidonic acid-induced inflammation model: ex vivo stimulated LTB4 production in blood; parameters: species or system Balb/c mice; details: Mus musculus; 30 mg/kg oral gavage; blood diluted 1:1, A23187 stimulated ex vivo; percent inhibition of LTB4 production; read-out: % Inh. LTB4
Protocol: (§1) Assay 3: Murine Arachidonic Acid-Induced Inflammation Model
(§2) LTA4H inhibitor compounds of the present invention were dissolved in 20% cyclodextran/H2O at a concentration of 3 mg/mL. The solutions were administered by oral gavage to female Balb/c mice weighing approximately 20 grams each (0.2 mL per mouse, 30 mg of LTA4H inhibitor compound per kg). Sixty minutes after being administered an LTA4 inhibitor, each mouse received topical application of 20 μL of arachidonic acid (100 mg/mL in acetone) to the left ear and 20 μL of acetone only to the right ear. After 3 h, the mice were sacrificed, blood was withdrawn in heparinized syringes, and 8 mm ear biopsies were taken. Ear biopsies were weighed to determine edema and then frozen at −80° C. until needed for determination of neutrophil influx.
The microtiter plate contents were incubated for 30 min at 37° C. in a humidified incubator. The reaction was terminated by centrifugation (833×g, 10 min at 4° C.). Supernatants were analyzed for LTB4 by a commercially available enzyme-linked immunoassay (Cayman Chemical Co.) in accordance with the manufacturer's instructions. The percent inhibition of ex vivo stimulated LTB4 production (% Inh. LTB4) was determined by comparison to animals treated identically except that the solution administered by oral gavage was devoid of inhibitor compound.

[2] = system: arachidonic acid-induced neutrophil influx in murine ear tissue; assay: Murine arachidonic acid-induced inflammation model: neutrophil influx (myeloperoxidase) in ear; type: in vivo, Balb/c mice; details: Mus musculus; 30 mg/kg oral gavage, 60 min before topical arachidonic acid, ear biopsy after 3 h; percent inhibition of neutrophil influx; read-out: % Inh. MPO
Protocol: as §1, §2
Neutrophil influx was quantified by measuring the activity of myeloperoxidase (MPO), a neutrophil-specific enzyme. […] Debris was removed by centrifugation at 14000×g for 10 min. […] The microtiter plate contents were held at room temperature until the sample with the highest concentration of MPO reached an absorbance value of 0.4 at 650 nm. The reaction was stopped by addition of 50 μL 1 M H2SO4 to each sample well, and the myeloperoxidase activity in each sample was determined from the absorbance at […]. The background value from the right ear, treated only with acetone, was subtracted from that for the left ear, treated with arachidonic acid in acetone, for each animal. The percent inhibition of neutrophil influx (% Inh. MPO) by compounds of the invention was determined by comparison to animals treated identically, except that the solution administered by oral gavage was devoid of inhibitor compound. All compounds were assayed in their free base form.

[3] = target: T1, recombinant human LTA4 hydrolase (rhLTA4H) (Homo sapiens, UniProt P09960); assay: Recombinant human LTA4 hydrolase assay for LTA4 hydrolase inhibitor activity; type: biochemical
T1 construct: made in house; host or cells: Spodoptera frugiperda (Sf-9) cells, baculovirus (pFastBac1)
T1 sequence (P09960 1-611): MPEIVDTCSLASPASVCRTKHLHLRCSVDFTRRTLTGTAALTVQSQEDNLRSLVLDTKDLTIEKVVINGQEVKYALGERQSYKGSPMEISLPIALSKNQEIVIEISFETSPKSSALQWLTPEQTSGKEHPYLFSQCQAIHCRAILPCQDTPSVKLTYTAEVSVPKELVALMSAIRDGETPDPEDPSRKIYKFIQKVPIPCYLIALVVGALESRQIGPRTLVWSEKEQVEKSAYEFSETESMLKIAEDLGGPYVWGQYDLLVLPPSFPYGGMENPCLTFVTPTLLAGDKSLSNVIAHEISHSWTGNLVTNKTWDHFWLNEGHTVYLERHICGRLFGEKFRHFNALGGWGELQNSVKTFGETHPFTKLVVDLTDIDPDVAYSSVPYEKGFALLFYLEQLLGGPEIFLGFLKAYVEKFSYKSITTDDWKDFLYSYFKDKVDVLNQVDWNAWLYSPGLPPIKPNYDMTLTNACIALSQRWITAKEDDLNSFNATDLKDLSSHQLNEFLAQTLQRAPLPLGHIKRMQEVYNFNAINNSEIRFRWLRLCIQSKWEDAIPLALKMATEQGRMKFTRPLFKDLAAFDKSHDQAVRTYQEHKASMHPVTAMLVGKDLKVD
Procedure, shortened: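 Baculovirus/Sf-9-expressed human LTA4H (10 ng) was preincubated 10 min at rt with compound in assay buffer (10% DMSO in compound dilution), then reacted 30 min at rt with LTA4 free acid made from its methyl ester. LTB4 produced was measured by ELISA after dilution; IC50 from non-linear regression, single or averaged determinations.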

[4] = system: LTB4 production in murine blood (LTA4H); assay: LTB4 production by calcium ionophore-stimulated murine blood for LTA4H inhibitor activity; type: cell-based, CD-1 mice; details: Mus musculus; murine blood diluted 1 in 15, A23187 stimulated; single determination or average; mark after value = form tested: ′ free base, ″ hydrochloride, ^ formate; read-out: IC50
Procedure, shortened: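 Heparinized blood from CD-1 mice was preincubated with compound for 15 min at 37° C, then stimulated with calcium ionophore A23187 (final 7 μg/mL) for 30 min. Centrifugation stopped the reaction, and LTB4 in the supernatant was measured by enzyme immunoassay. Values are single determinations or means of two or more.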

[5] = rhLTA4H, LTB4 by immunoassay, single determination or average of two or more, mark after value = form tested: ′ free base, ″ hydrochloride, ^ formate, read-out: IC50

Compound | inhibition at 30 mg/kg [1] [%] | inhibition at 30 mg/kg [2] [%] | IC50 [3, 5] [nM] | IC50 [4] [nM] | IC50 [3] [nM]
O=C1CCCN1C1CCN(Cc2cc3cc(Oc4nc5ncccc5s4)ccc3o2)CC1 [Example 96, 1-{1-[5-(Thiazolo[4,5-b]pyridin-2-yloxy)-benzofuran-2-ylmethyl]-piperidin-4-yl}-pyrrolidin-2-one] | 66 | 53 | 140 | 110 | 
c1cnc2nc(Oc3ccc4oc(CN5C[C@@H]6C[C@H]5CO6)cc4c3)sc2c1 [Example 99, (1S,4S)-2-[2-(2-Oxa-5-aza-bicyclo[2.2.1]hept-5-ylmethyl)-benzofuran-5-yloxy]-thiazolo[4,5-b]pyridine] | 15 | 58 | 37 | 63 | 
NC(=O)N1C[C@@H]2C[C@H]1CN2Cc1cc2cc(Oc3nc4ncccc4s3)ccc2o1 [Example 100, (1S,4S)-5-[5-(Thiazolo[4,5-b]pyridin-2-yloxy)-benzofuran-2-ylmethyl]-2,5-diaza-bicyclo[2.2.1]heptane-2-carboxylic acid amide] | 44 | 33 | 69 | 160 | 
NC(=O)N1C[C@H]2C[C@@H]1CN2Cc1cc2cc(Oc3nc4ncccc4s3)ccc2o1 [Example 101, (1R,4R)-5-[5-(Thiazolo[4,5-b]pyridin-2-yloxy)-benzofuran-2-ylmethyl]-2,5-diaza-bicyclo[2.2.1]heptane-2-carboxylic acid amide] | 53 | 65 | 52 | 202 | 
NC(=O)N[C@H]1C[C@H]2CC[C@@H](C1)N2Cc1cc2cc(Oc3nc4ncccc4s3)ccc2o1 [Example 103, meso-endo-N-{8-[5-(Thiazolo[4,5-b]pyridin-2-yloxy)-benzofuran-2-ylmethyl]-8-aza-bicyclo[3.2.1]oct-3-yl}-urea] | 0 | 18 | 4 | 132 | 
CC(=O)N[C@@H]1C[C@H]2CC[C@@H](C1)N2Cc1cc2cc(Oc3nc4ncccc4s3)ccc2o1 [Example 104, meso-exo-N-{8-[5-(Thiazolo[4,5-b]pyridin-2-yloxy)-benzofuran-2-ylmethyl]-8-aza-bicyclo[3.2.1]oct-3-yl}-acetamide] | 83 | 92 | 10 | 16 | 
CC(=O)N[C@@H]1C[C@H]2CC[C@@H](C1)N2Cc1cc2ccc(Oc3nc4ncccc4s3)cc2o1 [Example 106, meso-exo-N-{8-[6-(Thiazolo[4,5-b]pyridin-2-yloxy)-benzofuran-2-ylmethyl]-8-aza-bicyclo[3.2.1]oct-3-yl}-acetamide] | 85 | 81 | 7 | 14 | 
CC(=O)N1C[C@H]2C[C@@H]1CN2Cc1cc2ccc(Oc3nc4ncccc4s3)cc2o1 [Example 107, (1R,4R)-1-{5-[6-(Thiazolo[4,5-b]pyridin-2-yloxy)-benzofuran-2-ylmethyl]-2,5-diaza-bicyclo[2.2.1]hept-2-yl}-ethanone] | 75 | 82 | 65 | 276 | 
CN(C)Cc1cc2cc(Oc3nc4ncccc4s3)ccc2o1 [Example 112, Dimethyl-[5-(thiazolo[4,5-b]pyridin-2-yloxy)-benzofuran-2-ylmethyl]-amine] | 56 | 17 | 42 | 70 | 
NC(=O)C1CCN(Cc2cc3ccc(Oc4nc5ncccc5s4)cc3o2)CC1 [Example 116, 1-[6-(Thiazolo[4,5-b]pyridin-2-yloxy)-benzofuran-2-ylmethyl]-piperidine-4-carboxylic acid amide] | 76 | 66 | 44 | 55 | 
CC(=O)N[C@H]1C[C@H]2CC[C@@H](C1)N2Cc1cc2ccc(Oc3nc4ncccc4s3)cc2o1 [Example 118, meso-endo-N-{8-[6-(Thiazolo[4,5-b]pyridin-2-yloxy)-benzofuran-2-ylmethyl]-8-aza-bicyclo[3.2.1]oct-3-yl}-acetamide] | 89 | 97 | 23 | 50 | 
CC(=O)N1C[C@H]2CC[C@@H](C1)N2Cc1cc2ccc(Oc3nc4ncccc4s3)cc2o1 [Example 119, meso-1-{8-[6-(Thiazolo[4,5-b]pyridin-2-yloxy)-benzofuran-2-ylmethyl]-3,8-diaza-bicyclo[3.2.1]oct-3-yl}-ethanone] | 78 | 83 | 36 | 220 | 
CC(=O)N[C@H]1C[C@H]2CC[C@@H](C1)N2Cc1cc2ccc(Oc3nc4ncccc4s3)cc2s1 [Example 135, meso-endo-N-{8-[6-(Thiazolo[4,5-b]pyridin-2-yloxy)-benzo[b]thiophen-2-ylmethyl]-8-aza-bicyclo[3.2.1]oct-3-yl}-acetamide] | 85 | 42 | 3 | 110 | 
CC(=O)N1C[C@H]2CC[C@@H](C1)N2Cc1coc2cc(Oc3nc4ncccc4s3)ccc12 [Example 153, 1-{8-[6-(Thiazolo[4,5-b]pyridin-2-yloxy)-benzofuran-3-ylmethyl]-3,8-diaza-bicyclo[3.2.1]oct-3-yl}-ethanone] | 84 | 82 | 2 | 25 | 
CC(=O)N1C[C@@H]2C[C@H]1CN2Cc1coc2cc(Oc3nc4ncccc4s3)ccc12 [Example 154, (1S,4S)-1-{5-[6-(Thiazolo[4,5-b]pyridin-2-yloxy)-benzofuran-3-ylmethyl]-2,5-diaza-bicyclo[2.2.1]hept-2-yl}-ethanone] | 83 | 83 | 7 | 26 | 
CC(=O)N[C@H]1C[C@H]2CC[C@@H](C1)N2Cc1coc2cc(Oc3nc4ncccc4s3)ccc12 [Example 155, meso-endo-N-{8-[6-(Thiazolo[4,5-b]pyridin-2-yloxy)-benzofuran-3-ylmethyl]-8-aza-bicyclo[3.2.1]oct-3-yl}-acetamide] | 85 | 88 |  | 9 | 2
c1cnc2nc(Oc3ccc4c(CN5CCOCC5)coc4c3)sc2c1 [Example 156, 2-(3-Morpholin-4-ylmethyl-benzofuran-6-yloxy)-thiazolo[4,5-b]pyridine] | 91 | 86 | 17 | 21 | 
